Measured values as given in patent US20140155406A1, “4-IMIDAZOPYRIDAZIN-1-YL-BENZAMIDES AND 4-IMIDAZOTRIAZIN-1-YL-BENZAMIDES BTK INHIBITORS” (priority 2011, published 2014).

Key:
FynT enzyme = target: T1, FynT enzyme (Homo sapiens, UniProt P06241); test: FynT enzyme activity, IMAP fluorescence polarization assay; type: biochemical; conditions: 60 min pre-incubation, 0.2 μM ATP (Km)
T1 construct: purchased Biomol SE-287
Procedure, shortened: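 FynT (125 ng/mL final) pre-incubated 60 min at RT with compound (10 μM–0.316 nM, 1% DMSO) in pH 7.2 Tris/Mg/Mn buffer, then 100 nM fluorescein p34cdc2 peptide and 0.2 μM ATP (Km) for 2 h at RT. IMAP binding FP read at 535 nm; EC50 from curve fit versus ±ATP controls.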

Lyn enzyme = target: T2, Lyn enzyme (Homo sapiens, UniProt P07948); test: Lyn enzyme activity, IMAP fluorescence polarization assay; type: biochemical; conditions: 60 min pre-incubation, 2 μM ATP (Km)
T2 construct: purchased Millipore 14-510
T2 sequence (P07948 whole entry): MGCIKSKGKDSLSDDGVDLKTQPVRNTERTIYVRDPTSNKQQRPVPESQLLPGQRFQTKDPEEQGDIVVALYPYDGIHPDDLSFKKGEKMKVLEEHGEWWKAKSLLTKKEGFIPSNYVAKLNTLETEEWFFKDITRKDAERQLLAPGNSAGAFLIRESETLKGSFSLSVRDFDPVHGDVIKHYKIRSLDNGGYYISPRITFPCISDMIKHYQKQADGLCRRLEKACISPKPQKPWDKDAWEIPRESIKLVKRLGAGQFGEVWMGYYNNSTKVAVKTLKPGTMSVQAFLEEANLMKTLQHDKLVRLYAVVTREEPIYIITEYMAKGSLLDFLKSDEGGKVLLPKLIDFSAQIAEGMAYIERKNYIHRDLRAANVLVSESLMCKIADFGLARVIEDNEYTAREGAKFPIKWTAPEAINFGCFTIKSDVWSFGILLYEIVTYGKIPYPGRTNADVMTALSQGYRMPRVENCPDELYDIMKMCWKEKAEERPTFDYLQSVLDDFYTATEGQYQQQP

T1 sequence (P06241 1-534 isoform P06241-2): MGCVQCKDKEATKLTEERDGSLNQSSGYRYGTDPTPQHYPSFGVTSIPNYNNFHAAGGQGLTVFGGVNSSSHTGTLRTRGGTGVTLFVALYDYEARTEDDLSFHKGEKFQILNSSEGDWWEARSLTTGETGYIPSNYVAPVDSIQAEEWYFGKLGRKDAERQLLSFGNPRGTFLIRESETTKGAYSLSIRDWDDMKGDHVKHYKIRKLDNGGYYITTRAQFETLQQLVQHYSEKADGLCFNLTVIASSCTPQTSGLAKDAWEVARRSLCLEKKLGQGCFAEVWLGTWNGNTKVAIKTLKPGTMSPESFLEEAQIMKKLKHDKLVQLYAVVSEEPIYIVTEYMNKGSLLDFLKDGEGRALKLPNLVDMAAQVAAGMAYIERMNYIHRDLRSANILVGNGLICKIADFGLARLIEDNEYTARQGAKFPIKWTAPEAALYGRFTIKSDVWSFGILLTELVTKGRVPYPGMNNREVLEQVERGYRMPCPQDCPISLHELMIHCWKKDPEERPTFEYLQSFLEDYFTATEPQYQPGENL

| EC50 (FynT enzyme) | EC50 (Lyn enzyme) | Compound |
| --- | --- | --- |
| ≥ 1 µM | ≥ 1 µM | CCCc1ccnc(NC(=O)c2ccc(-c3nc([C@@H]4CCCCN4C(=O)/C=C/CN4CCCC4)n4ccnc(C)c34)cc2)c1 [Example 35, (S,E)-4-(8-methyl-3-(1-(4-(pyrrolidin-1-yl)but-2-enoyl)piperidin-2-yl)imidazo[1,5-a]pyrazin-1-yl)-N-(4-propylpyridin-2-yl)benzamide] |
| ≥ 1 µM | ≥ 1 µM | CCCc1ccnc(NC(=O)c2ccc(-c3nc([C@H](C)NC(=O)/C=C/COC)n4ccnc(C)c34)cc2)c1 [Example 36, (S,E)-4-(3-(1-(4-methoxybut-2-enamido)ethyl)-8-methylimidazo[1,5-a]pyrazin-1-yl)-N-(4-propylpyridin-2-yl)benzamide] |
| ≥ 1 µM | ≥ 1 µM | Cc1nccn2c([C@@H]3CCCCN3C(=O)/C=C/CN(C)C)nc(-c3ccc(C(=O)Nc4cc(C(F)(F)F)ccn4)cc3)c12 [Example 37, (S,E)-4-(3-(1-(4-(dimethylamino)but-2-enoyl)piperidin-2-yl)-8-methylimidazo[1,5-a]pyrazin-1-yl)-N-(4-(trifluoromethyl)pyridin-2-yl)benzamide] |
| ≥ 1 µM | ≥ 1 µM | CC#CC(=O)N[C@@H](C)c1nc(-c2ccc(C(=O)Nc3cc(CCC)ccn3)cc2)c2c(C)nccn12 [Example 38, (S)-4-(3-(1-but-2-ynamidoethyl)-8-methylimidazo[1,5-a]pyrazin-1-yl)-N-(4-propylpyridin-2-yl)benzamide] |
